According to PubChem BioAssay (NCI):
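Test compounds were applied to cells in 96-well plates for 48 hours at 5 doses. Here, GI50 denotes the concentration required for 50% inhibition of growth. At the TGI there is no net growth.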

Legend:
Assay in all cases: DTP human tumour cell line panel, 48 h
NCI/ADR-RES ovarian = tested on: NCI/ADR-RES ovarian
NCI-H226 lung = tested on: NCI-H226 lung
DU-145 prostate = tested on: DU-145 prostate
COLO 205 colon = tested on: COLO 205 colon
MOLT-4 leukemia = tested on: MOLT-4 leukemia
M14 melanoma = tested on: M14 melanoma
HCT-116 colon = tested on: HCT-116 colon
SNB-19 CNS = tested on: SNB-19 CNS
RXF 393 renal = tested on: RXF 393 renal
SK-OV-3 ovarian = tested on: SK-OV-3 ovarian
SK-MEL-2 melanoma = tested on: SK-MEL-2 melanoma
NCI-H522 lung = tested on: NCI-H522 lung
BT-549 breast = tested on: BT-549 breast
SR leukemia = tested on: SR leukemia
HOP-62 NSCLC = tested on: HOP-62 NSCLC
LOX IMVI melanoma = tested on: LOX IMVI melanoma
NCI-H23 lung = tested on: NCI-H23 lung
SF-268 CNS = tested on: SF-268 CNS
ACHN renal = tested on: ACHN renal
SF-539 CNS = tested on: SF-539 CNS
HCT-15 colon = tested on: HCT-15 colon
MDA-MB-435 = tested on: MDA-MB-435
UACC-62 melanoma = tested on: UACC-62 melanoma
MALME-3M melanoma = tested on: MALME-3M melanoma
NCI-H460 lung = tested on: NCI-H460 lung
CCRF-CEM leukemia = tested on: CCRF-CEM leukemia
K-562 leukemia = tested on: K-562 leukemia
KM12 colon = tested on: KM12 colon
SW-620 colon = tested on: SW-620 colon
UO-31 renal = tested on: UO-31 renal
HL-60(TB) leukemia = tested on: HL-60(TB) leukemia
OVCAR-4 ovarian = tested on: OVCAR-4 ovarian
A498 renal = tested on: A498 renal
OVCAR-5 ovarian = tested on: OVCAR-5 ovarian
U251 CNS = tested on: U251 CNS
PC-3 prostate = tested on: PC-3 prostate
HT29 colon = tested on: HT29 colon
IGROV1 ovarian = tested on: IGROV1 ovarian
TK-10 renal = tested on: TK-10 renal
SN12C renal = tested on: SN12C renal
MCF7 breast = tested on: MCF7 breast
RPMI-8226 leukemia = tested on: RPMI-8226 leukemia
A549 NSCLC = tested on: A549 NSCLC
SK-MEL-5 melanoma = tested on: SK-MEL-5 melanoma
OVCAR-8 ovarian = tested on: OVCAR-8 ovarian
786-0 renal = tested on: 786-0 renal
MDA-MB-231 breast = tested on: MDA-MB-231 breast
CAKI-1 renal = tested on: CAKI-1 renal
SK-MEL-28 melanoma = tested on: SK-MEL-28 melanoma
OVCAR-3 ovarian = tested on: OVCAR-3 ovarian
HS 578T breast = tested on: HS 578T breast
HCC-2998 colon = tested on: HCC-2998 colon
SNB-75 CNS = tested on: SNB-75 CNS
UACC-257 melanoma = tested on: UACC-257 melanoma
HOP-92 NSCLC = tested on: HOP-92 NSCLC
T-47D breast = tested on: T-47D breast

## COc1ccc(-c2ccc(-c3ccc(C(=N)N)cn3)o2)cc1
NCI/ADR-RES ovarian
  GI50: 14.1 µM
  TGI: 30.7 µM
NCI-H226 lung
  GI50: 12.8 µM
  TGI: 29.5 µM
DU-145 prostate
  GI50: 11.3 µM
  TGI: 24.7 µM
COLO 205 colon
  GI50: 1.82 µM
  TGI: 3.68 µM
MOLT-4 leukemia
  GI50: 4.4 µM
  TGI: 15.5 µM
M14 melanoma
  GI50: 2.12 µM
  TGI: 4.68 µM
HCT-116 colon
  GI50: 3.26 µM
  TGI: 12.9 µM
SNB-19 CNS
  GI50: 11.7 µM
  TGI: 24.6 µM
RXF 393 renal
  GI50: 7.01 µM
  TGI: 20 µM
SK-OV-3 ovarian
  GI50: 10.2 µM
  TGI: 21.8 µM
SK-MEL-2 melanoma
  GI50: 4.91 µM
  TGI: 15.9 µM
NCI-H522 lung
  GI50: 6.8 µM
  TGI: 20.7 µM
BT-549 breast
  GI50: 10.7 µM
  TGI: 22.8 µM
SR leukemia
  GI50: 3.11 µM
  TGI: 10.3 µM
HOP-62 NSCLC
  GI50: 10.5 µM
  TGI: 22.6 µM
LOX IMVI melanoma
  GI50: 2.58 µM
  TGI: 6.86 µM
NCI-H23 lung
  GI50: 11.6 µM
  TGI: 25.5 µM
SF-268 CNS
  GI50: 11.2 µM
  TGI: 25.3 µM
ACHN renal
  GI50: 6.56 µM
  TGI: 19.6 µM
SF-539 CNS
  GI50: 4.74 µM
  TGI: 17.8 µM
HCT-15 colon
  GI50: 4.62 µM
  TGI: 17.7 µM
MDA-MB-435
  GI50: 2.18 µM
  TGI: 4.97 µM
UACC-62 melanoma
  GI50: 10.3 µM
  TGI: 22.9 µM
MALME-3M melanoma
  GI50: 3.25 µM
  TGI: 7.32 µM
NCI-H460 lung
  GI50: 3.69 µM
  TGI: 14 µM
CCRF-CEM leukemia
  GI50: 3.2 µM
  TGI: 13.7 µM
K-562 leukemia
  GI50: 3.97 µM
  TGI: 13.5 µM
KM12 colon
  GI50: 4.41 µM
  TGI: 15.5 µM
SW-620 colon
  GI50: 4.05 µM
  TGI: 16 µM
UO-31 renal
  GI50: 2.68 µM
  TGI: 17.3 µM
HL-60(TB) leukemia
  GI50: 2.14 µM
  TGI: 5.7 µM
OVCAR-4 ovarian
  GI50: 10.4 µM
  TGI: 22.1 µM
A498 renal
  GI50: 12.8 µM
  TGI: 26.3 µM
OVCAR-5 ovarian
  GI50: 10.9 µM
  TGI: 23.7 µM
U251 CNS
  GI50: 4.7 µM
  TGI: 17.4 µM
PC-3 prostate
  GI50: 4.18 µM
  TGI: 18 µM
HT29 colon
  GI50: 3.4 µM
  TGI: 11.1 µM
IGROV1 ovarian
  GI50: 5.29 µM
  TGI: 19 µM
TK-10 renal
  GI50: 10.7 µM
  TGI: 22.7 µM
SN12C renal
  GI50: 8.01 µM
  TGI: 22.5 µM
MCF7 breast
  GI50: 3.17 µM
  TGI: 13.4 µM
RPMI-8226 leukemia
  GI50: 2.78 µM
  TGI: 10.1 µM
A549 NSCLC
  GI50: 5.1 µM
  TGI: 18.7 µM
SK-MEL-5 melanoma
  GI50: 3.43 µM
  TGI: 14.1 µM
OVCAR-8 ovarian
  GI50: 11.3 µM
  TGI: 31.2 µM
786-0 renal
  GI50: 6.02 µM
  TGI: 18.8 µM
MDA-MB-231 breast
  GI50: 3.34 µM
  TGI: 15.3 µM
CAKI-1 renal
  GI50: 6.79 µM
  TGI: 20.7 µM
SK-MEL-28 melanoma
  GI50: 8.23 µM
  TGI: 20.9 µM
OVCAR-3 ovarian
  GI50: 8.9 µM
  TGI: 21.6 µM
HS 578T breast
  GI50: 10.9 µM
  TGI: 36.7 µM
HCC-2998 colon
  GI50: 2.45 µM
  TGI: 5.71 µM
SNB-75 CNS
  GI50: 10.5 µM
  TGI: 22.5 µM
UACC-257 melanoma
  GI50: 2.18 µM
  TGI: 4.69 µM
HOP-92 NSCLC
  GI50: 1.31 µM
  TGI: 6.4 µM
T-47D breast
  GI50: 5.13 µM
  TGI: 21 µM
